Legend:
injured SH-SY5Y cells = test: Protective effect against tert-butyl hydroperoxide-induced SH-SY5Y neurotoxicity cells (MTT assay); format: cell-based; settings: Homo sapiens; for viability at 3.125 µM / viability at 6.25 µM / viability at 12.5 µM / viability at 25 µM / viability at 50 µM: injured SH-SY5Y cells, read-out: Proliferation Rate (%); for EC50: tert-butyl hydroperoxide-induced SH-SY5Y neurotoxicity, read-out: EC50 for protecting injured SH-SY5Y cells;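 on Proliferation Rate (%): 0% equals CoCl2-injured cells and 100% equals NGF-treated cells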
Description: The protective effects of baicalein derivatives in vitro was evaluated against tert-butyl, hydroperoxide-induced, SH-SY5Y neurotoxicity cells using an MTT assay. In addition, their toxicity evaluation was tested on normal H9C2 cells. The resulting proliferation rates (%) at different concentrations, as well as their 50% effective concentrations (EC50) for protecting damaged SH-SY5Y cells of the baicalein amino acid derivatives, are summarized in Table 2.
(§1) The SH-SY5Y ([…]) and H9C2 ([…]) cell lines were obtained from the Chinese Academy of Medical Sciences and Peking Union Medical College. All of the cell lines were grown in dulbecco’s modified eagle medium (DMEM) with 10% (v/v) fetal bovine serum (FBS) and 1% (v/v) penicillin/streptomycin (Thermo Technologies, New York, NY, USA), under a humidified atmosphere containing 5% CO2 at 37 °C. The baicalein derivatives were dissolved in DMSO (Sigma, St. Louis, MO, USA) and added at various concentrations to the cell culture.
(§2) The protective effect of these compounds was evaluated on SH-SY5Y and H9C2 cell lines via the MTT method. The cells growing in the logarithmic phase were cultured in 96-well plates at a density 3 × 10^3 cells/well and incubated for 24 h. Then each well was treated with the required concentrations (50 µM concentrations, 25 µM concentrations, 12.5µM concentrations, 6.25 µM concentrations, and 3.125 µM concentrations) of baicalein derivatives, and incubated 36 h at 37 °C with 5% CO2. After that, the cells were induced by H2O2 (final concentration, […]) for 12 h. Control-differentiated cells were injected with new growth media at equal amounts. Before […] MTT solution (5 mg/mL) was added to each well, the cell culture fluid was discarded, and […] fresh cell culture fluid was added. The plate was incubated for a further 4 h at 37 °C. The cell supernatant medium was removed carefully, without disturbing the attached cells, and formazan crystals were solubilized by adding 150 μL DMSO into each well. The absorbance was measured at 490 nm with a plate reader (BIORAD 550 spectrophotometer, Bio-rad Life Science Development Ltd., Beijing, China). H2O2 was dissolved in DMEM medium. Wells without drugs were used as blanks. The EC50 values were defined as the concentrations that causes the maximum effect of 50%; IC50 values were defined as the concentration of compound which gives 50% growth inhibition, and were calculated using the GraphPad Prism 5. The proliferation rates of damaged SH-SY5Y cells were calculated in the following formula (1): [OD490 (compound) − OD490 (CoCl2)]/[OD490 (NGF) − OD490 (CoCl2)] × 100%(1) The EC50 values were using the equation −pEC50 = log Cmax − log 2 × (ΣP − 0.75 + 0.25Pmax + 0.25Pmin)(2) where Cmax is the maximum concentration, ΣP is the sum of proliferation rates, Pmax is the maximum value of the proliferation rate, and Pmin is the minimum value of the proliferation rate. Cell viability was expressed as a percentage of the control.

H9C2 cells [1] = test: Toxicity on normal H9C2 cells (MTT assay); format: cell-based; settings: MTT; for viability at 6.25 µM / viability at 12.5 µM / viability at 25 µM / viability at 50 µM: H9C2 cells, read-out: Survival Rate (%); for IC50: normal H9C2 cells
Description: To study cytotoxicity on normal cells, the cytotoxicity of compounds against normal H9C2 cells were tested.
as §1, §2
The inhibition rate was calculated in the following equation: % inhibition = 1 − (Sample group OD/Control group OD) × 100%(3)

H9C2 cells [2] = test: Toxicity on normal H9C2 cells (MTT assay); format: cell-based; settings: read-out: Survival Rate (%)

SMILES	viability at 3.125 µM (injured SH-SY5Y cells) [%]	viability at 6.25 µM (injured SH-SY5Y cells) [%]	viability at 12.5 µM (injured SH-SY5Y cells) [%]	viability at 25 µM (injured SH-SY5Y cells) [%]	viability at 50 µM (injured SH-SY5Y cells) [%]	EC50 (injured SH-SY5Y cells) [µM]	viability at 6.25 µM (H9C2 cells [1]) [%]	viability at 12.5 µM (H9C2 cells [1]) [%]	viability at 25 µM (H9C2 cells [1]) [%]	viability at 50 µM (H9C2 cells [1]) [%]	IC50 (H9C2 cells [1]) [µM]	melting point [°C]	viability at 100 µM (H9C2 cells [2]) [%]
CCC(C)C(NC(=O)OCc1ccccc1)C(=O)Oc1cc2oc(-c3ccccc3)cc(=O)c2c(O)c1O (centres unmarked) [Compound 7, 5,6-dihydroxy-4-oxo-2-phenyl-4H-chromen-7-yl 2-{[(benzyloxy)carbonyl]amino}-3-methyl-pentanoate]	63.6	69.7	79.8	79.8	72.2	5.24	152	147	145	139	> 100	155.7	124
CC(C)CC(NC(=O)OC(C)(C)C)C(=O)Oc1cc2oc(-c3ccccc3)cc(=O)c2c(O)c1O (centres unmarked) [Compound 15, 5,6-dihydroxy-4-oxo-2-phenyl-4H-chromen-7-yl 2-{[(tert-butoxy)carbonyl]amino}-4-methyl-pentanoate]	17.8	42.8	42.5	41.3	22.3	23.9	196	193	177	173	> 100	199.3	159
O=C(NCCCCC(NC(=O)OCc1ccccc1)C(=O)Oc1cc2oc(-c3ccccc3)cc(=O)c2c(O)c1O)OCc1ccccc1 (centres unmarked) [Compound 12, 5,6-dihydroxy-4-oxo-2-phenyl-4H-chromen-7-yl 2,6-di{[(benzyloxy)carbonyl]amino} hexanoate]	1.1	2.35	7.83	20.8	7.34	61.6	216	207	200	187	> 100	144.9	184
O=C(CC(NC(=O)OCc1ccccc1)C(=O)OCc1ccccc1)Oc1c(O)cc2oc(-c3ccccc3)cc(=O)c2c1O (centres unmarked) [Compound 4, 1-benzyl 5,7-dihydroxy-4-oxo-2-phenyl-4H-chromen-6-yl 2-{[(benzyloxy)carbonyl]amino} butanedioate]	59.1	94.1	77.7	70.2	54.8	5.51	156	140	140	131	> 100	157.8	126
CC(C)C(NC(=O)OCc1ccccc1)C(=O)Oc1c(O)cc2oc(-c3ccccc3)cc(=O)c2c1O (centres unmarked) [Compound 1, 5,7-dihydroxy-4-oxo-2-phenyl-4H-chromen-6-yl 2-{[(benzyloxy)carbonyl]amino}-3-methylbutanoate]	56	84.3	81.8	67.3	54.9	6.07	270	260	231	216	> 100	199.7	204

Source: PMC6832219, “Synthesis of Novel Baicalein Amino Acid Derivatives and Biological Evaluation as Neuroprotective Agents” (Molecules, 2019)
